# Source: PMC13266999, “Designing Antibiotics with Inherent Resistance to Efflux as a Strategy to Revive Discovery against Multidrug-Resistant Pathogens” (Journal of Medicinal Chemistry, 2026)
# Values joined by “and” are separate entries in the source; they are usually repeats but may differ in a detail not shown here. Equal values may be shown once. Read-outs that look alike come from different tables or passages of the source.
# Key:
# [1] = test system: E. faecalis; assay: MIC (microbroth dilution); format: cell-based, Enterococcus faecalis
# Procedure: (§1) All bacteria were maintained on tryptic soy agar (TSA), except Streptococcus spp., which were maintained on Columbia agar plates containing 5% horse blood. […] Bacteria were grown to stationary phase in liquid culture overnight, with shaking at 200 rpm, before being back diluted to the relevant starting concentration for each assay below. MICs were measured by the microbroth dilution method. […] Absorbance at OD600 was read on a CLARIOstar spectrophotometer (BMG Labtech) and the MIC was defined as the minimum concentration of compound where no visible growth was detected. […] MICs were also performed in the presence of the outer membrane permeator, polymyxin b nonapeptide (PMBN) following the same MIC method but with the following variation. The 2-fold dilution series of compound was prepared as above, then 50 μL of PMBN at a final concentration of 30 μg/mL was added to relevant wells, while 50 μL/well of blank media was added to the remaining wells. Bacteria were then added at 50 μL/well for a starting concentration as above. […] The MICs were read and defined as above. All animal procedures were performed by the contract research organization Pharmacology Discovery Services Taiwan in accordance with the Guide for the Care and Use of Laboratory Animals. The procedures were approved by the Institutional Ethics Committee of Pharmacology Discovery Services Taiwan, Ltd. (approval no. AB127662), in compliance with animal welfare legislation in Taiwan.
# [2] = test system: E. faecium; assay: MIC (microbroth dilution); format: cell-based, Enterococcus faecium
# Procedure: (§2) All bacteria were maintained on tryptic soy agar (TSA), except Streptococcus spp., which were maintained on Columbia agar plates containing 5% horse blood. All bacterial assays were carried out in tryptic soy broth (TSB), except for Streptococcus spp. which were grown in cation-adjusted Mueller Hinton broth containing 2.5% lysed horse blood. Bacteria were grown to stationary phase in liquid culture overnight, with shaking at 200 rpm, before being back diluted to the relevant starting concentration for each assay below. MICs were measured by the microbroth dilution method. […] Absorbance at OD600 was read on a CLARIOstar spectrophotometer (BMG Labtech) and the MIC was defined as the minimum concentration of compound where no visible growth was detected. The compounds were prepared as a DMSO stock and equivalent concentrations of DMSO had no effect on bacterial growth. MICs were also performed in the presence of the outer membrane permeator, polymyxin b nonapeptide (PMBN) following the same MIC method but with the following variation. The 2-fold dilution series of compound was prepared as above, then 50 μL of PMBN at a final concentration of 30 μg/mL was added to relevant wells, while 50 μL/well of blank media was added to the remaining wells. Bacteria were then added at 50 μL/well for a starting concentration as above. Thirty μg/mL of PMBN had no effect on bacterial growth. The MICs were read and defined as above. All animal procedures were performed by the contract research organization Pharmacology Discovery Services Taiwan in accordance with the Guide for the Care and Use of Laboratory Animals. The procedures were approved by the Institutional Ethics Committee of Pharmacology Discovery Services Taiwan, Ltd. (approval no. AB127662), in compliance with animal welfare legislation in Taiwan.
# [3] = test system: S. epidermidis; assay: MIC (microbroth dilution); format: cell-based, Staphylococcus epidermidis; details: SE378
# Procedure: as §1
# [4] = test system: S. haemolyticus; assay: MIC (microbroth dilution); format: cell-based, Staphylococcus haemolyticus; details: SH324
# Procedure: as §2
# [5] = test system: Acinetobacter baumannii; assay: MIC (microbroth dilution); format: cell-based
# Procedure: as §2
# [6] = test system: Pseudomonas aeruginosa; assay: MIC (microbroth dilution); format: cell-based
# Procedure: as §2
# [7] = test system: K. pneumoniae; assay: MIC (microbroth dilution); format: cell-based, Klebsiella pneumoniae
# Procedure: as §1
# [8] = biological target: T1, GyrA S84L mutant DNA gyrase (Staphylococcus aureus, UniProt P0A0K8+P20831, S84L); assay: DNA gyrase supercoiling inhibition assay; format: biochemical, S. aureus; details: S84L mutant enzyme; read-out: IC50 (converted)
# T1 construct: purchased Inspiralis Ltd. (Norwich, UK)
# Procedure: (§3) Gyrase inhibition was determined through biochemical assay kits from Inspiralis Ltd. (Norwich, UK), according to manufacturer’s instructions, and as described previously. Briefly, 1U of enzyme was incubated with 0.5 μg of relaxed […] DNA in the presence of compound in 1% DMSO for 30 min at 37 °C. A control reaction contained no compound but still contained 1% DMSO. The reactions were stopped through Stop Buffer addition and the DNA separated through addition of chloroform/iso-amyl alcohol (24;1). Samples were run on a 1% agarose gel at 75 V for 2 h, which was then stained with 1 μg/mL ethidium bromide and visualized using a NuGenius gel imager (Syngene). The intensity of the supercoiled DNA band was quantified using Syngene software, and the inhibition of the supercoiling of the DNA by the compounds was calculated.
# [9] = biological target: T2, WT DNA gyrase (Staphylococcus aureus, UniProt P0A0K8+P20831); assay: DNA gyrase supercoiling inhibition assay; format: biochemical, S. aureus; details: WT enzyme; read-out: IC50 (converted)
# T2 construct: purchased Inspiralis Ltd. (Norwich, UK)
# Procedure: as §3
# [10] = test system: S. aureus NCTC 13616; assay: Time-kill assay; format: cell-based; details: 4x MIC, 24 hours
# Procedure: Time-kill assays were performed as defined previously.
# [11] = test system: S. aureus; assay: Serial passaging, MIC of adapted strains; format: cell-based
# Procedure: MICs were performed on the first and 10th passage.
# [12] = Kinetic aqueous solubility; format: physicochemical; details: phosphate-buffered saline with 2% DMSO, pH 7.4, aqueous buffer, kinetic from dmso stock
# Procedure: Kinetic aqueous solubility was determined using a standard LC-UV/MS-based assay. Test compounds were prepared from 10 mM DMSO stock solutions and diluted to a nominal concentration of 200 μM in phosphate-buffered saline (PBS, pH 7.4) containing 2% DMSO. Parallel dilutions in DMSO were used as reference standards. Samples were equilibrated at room temperature for 2 h with shaking, then filtered, and the filtrates were analyzed by LC-UV with mass spectrometric confirmation of the analyte peak. Solubility was determined by comparing the UV peak area of the PBS filtrate with those of the DMSO reference standards. The effective range of the assay was 10–200 μM.
# [13] = Plasma protein binding (RED); format: in vitro ADME; details: pH 7.4
# Procedure: Plasma protein binding was measured using a Rapid Equilibrium Dialysis (RED) assay. Test compounds and control compounds were added to plasma at 10 μM and dialyzed against phosphate-buffered saline (PBS, pH 7.4) for 4 h at 37 °C. […] The percentage of drug bound to plasma proteins was calculated by comparing the analyte response in the plasma compartment with that in the buffer compartment.
# [14] = test system: NorA overexpressing strain NCTC 13616; assay: Reserpine growth (efflux inhibition) assay; details: for AUC of growth curve: biological replicates 1-3, listed as ML-77-005
# Procedure: Statistical analyses were performed with GraphPad Prism V9.5.0. […] Unpaired t tests were used when comparing two samples in the gyrase assays.
structure (smiles),measurement,setting,value
"O=C(O)c1cn(C2CC2)c2cc(N3CCN(Cc4cccc5ccccc45)CC3)c(F)cc2c1=O [Compound 8, 1-Cyclopropyl-6-fluoro-7-(4-(naphthalen-1-ylmethyl)piperazin-1-yl)-4-oxo-1,4-dihydroquinoline-3-carboxylic acid]",MIC,[1]; EF602,2 µg/mL
same,MIC,"[1]; Enterococcus faecalis, NCTC775, NCTC 775, read-out: MIC",2 µg/mL
same,MIC,"[1]; Enterococcus faecalis, NCTC12201, NCTC 12201, read-out: MIC",0.125 µg/mL
same,MIC,"[1]; Enterococcus faecalis, NCTC12204, NCTC 12204, read-out: MIC",2 µg/mL
same,MIC,[1]; NCTC 775,2 µg/mL
same,MIC,[1]; NCTC 12201,0.5 µg/mL
same,MIC,[2]; EF205,2 µg/mL
same,MIC,[2]; NCTC 12204,2 µg/mL
same,MIC,[3],0.25 to 2 µg/mL
same,MIC,[4],4 µg/mL
same,MIC,"[5]; ATCC 17978, +PMBN",0.125 µg/mL
same,MIC,"[5]; AYE, +PMBN",32 µg/mL
same,MIC,"[5]; Acinetobacter baumannii, ATCC17978, ATCC 17978, read-out: MIC",4 µg/mL
same,MIC,"[5]; Acinetobacter baumannii, BAA1710, BAA-1710 (AYE), read-out: MIC",> 128 µg/mL
same,MIC,[6]; NCTC 13437,128 µg/mL
same,MIC,"[6]; NCTC 13437, +PMBN",32 µg/mL
same,MIC,"[6]; PAO1, + PMBN",0.125 µg/mL
same,MIC,"[6]; Pseudomonas aeruginosa, PAO1, read-out: MIC",> 128 µg/mL
same,MIC,"[7]; Klebsiella pneumoniae, M6, read-out: MIC",32 to 64 µg/mL
same,MIC,"[7]; Klebsiella pneumoniae, NCTC13368",> 128 µg/mL
same,MIC,"[7]; M6, +PMBN, in µg/mL",0.5
same,MIC,"[7]; NCTC 13368, +PMBN, in µg/mL",1-2
same,IC50,[8],94.9 µM
same,IC50,[9],> 271 µM
same,time-kill profile,[10],comparable bacteriostatic profiles
same,MIC,[11]; ATCC 9144 4x (passaged with Compound 8),2 µg/mL
same,MIC,[11]; ATCC 9144 WT,0.5 µg/mL
same,MIC,[11]; NCTC 13616 4x (passaged with Compound 8),4 µg/mL
same,MIC,[11]; NCTC 13616 WT,2 µg/mL
same,solubility at 2 h,[12],< 5 µM
same,"fraction unbound at 4 h, 10 μM",[13],< 0.01
same,AUC of growth curve,[14]; 0.25 MIC + R (reserpine),3.096 and 3.206 and 1.480
same,AUC of growth curve,[14]; 0.25 MIC,3.117 and 3.088 and 3.115
same,AUC of growth curve,[14]; 0.5 MIC + R (reserpine),3.021 and 2.572 and 0.9525
same,AUC of growth curve,[14]; 0.5 MIC,1.068 and 2.766 and 2.838
same,efflux liability in reserpine assay,[14]; 0.5x MIC with vs without reserpine,not a substrate of NorA
